Reference: US20130078203A1, “CAROTENOID SUNSCREEN” (Promar AS, priority 2010, published 2013)
Where “and” joins values, the source holds several entries; their conditions need not be identical. Equal values may be shown once. Read-outs that look alike come from different tables or passages of the source.

Assays:
[1] = UV/VIS absorption maxima by HPLC with diode array detector; assay type: physicochemical; conditions: carotenoids dissolved in MeOH, HPLC on Zorbax C18 column
Procedure: LC-MS analyses were performed on an Agilent Ion Trap SL mass spectrometer equipped with an Agilent 1100 series HPLC system. The HPLC system was equipped with a diode array detector (DAD) which recorded UV/VIS spectra in the range from 200-650 nm. Two HPLC protocols were used for the analysis in this work. A high throughput protocol for a fast quantitative determination of known carotenoids was used as follows; the carotenoids were eluted isocratically in MeOH for 5 min. A Zorbax rapid resolution SB RP C18 column with dimension 2.1*30 mm was used for the analyses. Column flow was kept at 0.4 mL/min and 10 μL extract was injected for each run. For detailed qualitative carotenoid separation a Zorbax SB RP C18 with dimension 2.1*150 mm was used. The carotenoids were eluted isocratically in MeOH/Acetonitrile (7:3) for 25 minutes. The column flow was 250 μl/min and 10 or 20 μL sample was injected depending on the concentration.

[2] = In vitro skin model irradiation absorption (integrating sphere transmission spectra, Vitro-skin); assay type: physicochemical; conditions: for effect of prolonged contact with the skin model on absorption: 10, 15 or 20 minutes on Vitro-skin; for effect of prolonged contact with the skin model on absorption / absorption in the 375-490 nm range: FIGS. 7A-C; for absorption in the 375-490 nm range: Vitro-skin skin model
Procedure: The in vitro method of Springsteen was used (Springsteen et al., 1999, Analytica Chimica Acta, 380, p 155-164). Vitro-skin was used as the skin simulator and Miglyol (Miglyol 812F Neutraloel CHG.040906) or ethyl lactate (Sigma Aldrich) was used as the solvent. The tests were performed with a Varian Cary 300 Conc UV-Visible Spectrophotometer (with an integrating sphere). Sarcinaxanthin (prepared as described in Example 2) and the other carotenoids (Sigma Aldrich) were tested at various concentrations and immediately on application to the skin model or 10-20 minutes post-application.
FIGS. 7A-C show the irradiation absorption achieved by β-carotene (A), sarcinaxanthin (B) and zeaxanthin (C) at the concentrations indicated. The presented graphs also show the effects of the diluent on sarcinaxanthin absorption (FIG. 7B) and the effect of prolonged contact with the skin at 10, 15 or 20 minutes as indicated on the Figures. The results were compared to a conventional SPF 60 sun lotion and the use of diluent alone.

[3] = side-by-side comparison, ethyl lactate as diluent, immediately vs after 15 minutes, FIGS. 8A and B

Compound	λmax (nm) in the HPLC eluent [1]	effect of prolonged contact with the skin model on absorption [2]	absorption in the 375-490 nm range [2]	stability of absorption after 15 minutes on the skin model [2, 3]	stability of absorption after 15 minutes on the skin model [2]
CC1=CCC(C/C=C(\C)CO)C(C)(C)C1/C=C/C(C)=C/C=C/C(C)=C/C=C/C=C(C)/C=C/C=C(C)/C=C/C1C(C)=CCC(C/C=C(\C)CO)C1(C)C (stereo not shown) [Decaprenoxanthin]	414 nm and 438 nm and 467 nm	–	–	–	–
CC1=C(/C=C/C(C)=C/C=C/C(C)=C/C=C/C=C(C)/C=C/C=C(C)/C=C/C2=C(C)CCCC2(C)C)C(C)(C)CCC1 [β-carotene]	–	loss of absorption	only modest absorption	unstable and lose most of their absorption properties in the relevant range	–
C=C1CC[C@H](C/C=C(\C)CO)C(C)(C)[C@@H]1/C=C/C(C)=C/C=C/C(C)=C/C=C/C=C(C)/C=C/C=C(C)/C=C/[C@@H]1C(=C)CC[C@H](C/C=C(\C)CO[C@@H]2O[C@H](CO)[C@@H](O)[C@H](O)[C@H]2O)C1(C)C [Sarcinaxanthin monoglucoside]	414 nm and 438 nm and 467 nm	–	–	–	–
C=C1CC[C@H](C/C=C(\C)CO)C(C)(C)[C@@H]1/C=C/C(C)=C/C=C/C(C)=C/C=C/C=C(C)/C=C/C=C(C)/C=C/[C@@H]1C(=C)CC[C@H](C/C=C(\C)CO)C1(C)C [sarcinaxanthin]	414 nm and 438 nm and 467 nm	–	strong absorption	absorption appears unaffected by the prolonged contact	–
Lycopene	445 nm and 470 nm and 501 nm	–	–	–	–
CC1=C(/C=C/C(C)=C/C=C/C(C)=C/C=C/C=C(C)/C=C/C=C(C)/C=C/C2=C(C)C[C@@H](O)CC2(C)C)C(C)(C)C[C@H](O)C1 [zeaxanthin]	–	loss of absorption	only modest absorption	–	unstable and lose most of their absorption properties in the relevant range
C=C1CCC(C/C=C(\C)CO[C@@H]2O[C@H](CO)[C@@H](O)[C@H](O)[C@H]2O)C(C)(C)C1/C=C/C(C)=C/C=C/C(C)=C/C=C/C=C(C)/C=C/C=C(C)/C=C/C1C(=C)CCC(C/C=C(\C)CO[C@@H]2O[C@H](CO)[C@@H](O)[C@H](O)[C@H]2O)C1(C)C (stereo partly shown) [Sarcinaxanthin diglucoside]	414 nm and 438 nm and 467 nm	–	–	–	–
